For experiment [1], the system named is BAECs. Briefly: Quantification of MQE and QE in cells by LC-MS/MS. The note with it: 2 μM MitoG; for amounts of MQE and QE detected after exogenous methylglyoxal or glyoxal: 10 mM AG or 2 μM FCCP. Type of experiment: cell-based, bovine. On the procedure:
(A) and (B) BAECs were incubated with 2 μM MitoG for 1 h and sometimes supplemented with 10 mM AG or 2 μM FCCP. Methylglyoxal (A) or glyoxal (B) were then added, and after a further 3 h incubation the levels of MQE and QE in the cell layers were determined by LC-MS/MS relative to deuterated ISs. (C, D) BAECs were incubated in media containing low (5 mM) or high (30 mM) D-glucose with 2 μM MitoG for the times indicated. Levels of MQE (C) and QE (D) in the cell layers were determined by LC-MS/MS relative to deuterated ISs. Results are means±S.E. of four independent experiments. (E) BAECs were incubated for 4 h in the presence of 2 μM MitoG in media containing either 5 mM D-glucose (low), 30 mM D-glucose (high), 5 mM D-glucose/25 mM L-glucose (L-glucose), or 30 mM D-glucose/10 mM aminoguanidinium. Levels of MQE in the cell layers were determined by LC-MS/MS relative to deuterated ISs. (F) BAECs were incubated in media containing high (30 mM) D-glucose with 2 μM MitoG for 4 h with the indicated concentrations of the glyoxalase I inhibitor bromobenzyl glutathione cyclopentyl diester. Levels of MQE and QE in the cell layers were then determined by LC-MS/MS relative to deuterated ISs. Results are means±S.E. of three determinations. Results are means±S.E. of three (A, B) or four (C-E) independent experiments. *, P<0.05 or **, P<0.01, relative to untreated (A, B) or indicated (C-E) controls; ##, P<0.01 relative to cells treated with 250 μM 1,2-dicarbonyl.
For LC-MS/MS analysis of MitoG reaction products cells were incubated in T25 flasks (Nunc) with 2 μM MitoG at 37° C. Cell monolayers were washed (1 ml PBS), scraped into 1.5 ml PBS and pelleted by centrifugation (16,000 g for 2 min). The pellet was re-suspended in 250 μl 100% acetonitrile/0.1% spiked with deuterated internal standards (ISs) ([…] each of d15-MQE and d15-QE), vortexed and centrifuged (2×16,000 g for 15 min). Samples were dried under vacuum (Savant SpeedVac), re-suspended in 100 μl 20% acetonitrile/0.1% formic acid, vortexed, centrifuged (16,000 g for 10 min), transferred to silanised autosampler vials [Chromacol #1.5HRRV(S)], flushed and sealed under argon and then stored at −80° C. until LC-MS/MS analysis. Where specified, cells were subjected to acute glycaemia treatment and were incubated either in low glucose (5 mM D-glucose), high glucose (30 mM D-glucose), or in osmotic control medium (5 mM D-glucose+25 mM L-glucose) for 4 h.
LC-MS/MS analyses were carried out using a triple quadrupole mass spectrometer (Waters Xevo TQ-S) with an I-class Aquity LC system (Waters) attached. Samples were kept at 4° C. prior to injection by the autosampler of 10 μl into a 15 μl flow-through needle and RP-HPLC at 30° C. using a Luna 5 Phenyl-Hexyl column (1×50 mm, 5 μm; Phenomenex) with a Phenyl-Hexyl guard column (2×4 mm; Phenomenex). Buffers used were MS buffer A [0.1% (v/v) formic acid in water] and MS buffer B [95% acetonitrile/0.1% formic acid (both v/v)]. A gradient was run at […] as follows: 0-2 min—5% B; 2-3 min—5-25% B; 3-5 min—25-75% B; 5-7 min—75-100% B; 7-10 min—100% B; 10-12 min—100-5% B; 12-20 min—5% B. Eluant was diverted to waste from the mass spectrometer at 0-5 min and 16-20 min acquisition time using an in-line divert valve. […] Transitions used for quantification were as follows: MQE, 506>262; d15-MQE, 521>277; QE, 492>262 and d15-QE, 507>277. […]

For another experiment, the system named is C2C12 cells. Description: Protection against dicarbonyl-induced cell death, C2C12, MTS assay. Type of experiment: cell-based, mouse. The note with it: pre-treated 1 h, overnight; for protection against methylglyoxal-induced cell death: C2C12, 1 mM methylglyoxal; for protection against glyoxal-induced cell death: C2C12, 5 mM glyoxal. On the procedure: (§1) Isolated RLM respiring on glutamate/malate were incubated with MitoG, methoxyphenylenediamine (MP) or butylTPP for 2 min, followed by 0.5 mM methylglyoxal or 5 mM glyoxal for 5 min. ADP was then added and the rate of oxygen consumption monitored at 37° C. (see FIGS. 12A & 12B). C2C12 cells were pre-treated with MitoG, methoxyphenylenediamine (MP) or butylTPP for 1 h before exposure to 1 mM methylglyoxal or 5 mM glyoxal (see FIGS. 12C & 12D). Following an overnight incubation, cell survival was determined using the MTS assay. Similar experiments were conducted in BAECs pre-treated with MitoG, MP or butylTPP. For all experiments, concentrations of methylglyoxal and glyoxal used were chosen based on results from studies conducted prior to the protection assays. In these prior studies, RLM or cells were exposed to a range of dicarbonyl concentrations, and the phosphorylating rates of respiration or cell survival were evaluated. The results of these earlier experiments are shown in insets, and dicarbonyl concentrations that had caused significant respiratory depression or cell death were chosen for use in the protection assays. Data for all groups were normalized against untreated controls. For RLM, the rate of respiration by untreated controls was taken to be 100%; for cells, cell survival of untreated controls was taken to be 100%. Results are expressed as mean±S.E. of three independent experiments. MitoG was protective against methylglyoxal-induced respiratory depression and both methylglyoxal- and glyoxal-induced cell death in C2C12 cells and BAECs. […] In FIG. 12 the symbols *, ** respectively indicate that P<0.05 or P<0.01 relative to dicarbonyl-only groups; and the symbols +, ++ respectively indicate that P<0.05 or P<0.01 relative to untreated controls.

Experiment [2] concerns BAECs. Briefly: Protection against dicarbonyl-induced cell death, BAECs, MTS assay. Type of experiment: cell-based, bovine. The note with it: pre-treated 1 h, overnight. The protocol:
as §1

Experiment [3] concerns RLM respiring on glutamate/malate. Briefly: Protection against dicarbonyl-induced respiratory depression in isolated RLM. Further details: species or system rat. The note with it: 37° C.; for protection against methylglyoxal-induced respiratory depression: 0.5 mM methylglyoxal; for protection against glyoxal-induced respiratory depression: 5 mM glyoxal. On the procedure: as §1

Experiment [4] deals with C57Bl6/J mice with STZ-induced Type I diabetes. Briefly: STZ-induced Type I diabetes mouse model, diabetic complications in the heart. It counts as in vivo. On the procedure: To determine the effects of MitoG-amide on diabetic complications in the heart a well-established mouse model of type I diabetes was used, based on destruction of the beta-cells in the pancreas by administration of the beta-cell toxin streptozotocin (STZ; obtainable from Selleck Chemicals, Munich, Germany). Mice that were 6-7 week old C57Bl6/J mice (>20 g) were administered STZ (50 mg/kg by intraperitoneal injection) on 5 consecutive days. The death of the beta-cells and the induction of the high blood glucose associated with Type I diabetes was confirmed by weekly blood glucose tests on mice tail vein blood sample. A blood glucose level >17 mmol/l was considered diabetic. For experiments, mice were divided into three groups: (a) control; (b) STZ-induced Type I diabetes; and (c) STZ-induced Type I diabetic animals treated with MitoG-amide (10 mg/kg body weight once per day via gavage). This was repeated for 12 weeks (FIG. 13). At the end of the protocol, mice underwent cardiac magnetic resonance imaging (MRI) measurement (FIG. 14) followed by left ventricular catheter-based Pressure/Volume (P/V) measurement (FIG. 15). The MRI and P/V loop measurements were performed on the same day and the MRI volume measures were used as correction for the P/V loop.
For the cardiac magnetic resonance imaging (MRI) measurement a standard cardiac MRI protocol with a 4.7T Bruker BioSpec system was performed 24 h after surgery. Anaesthesia was induced with 3% and maintained with 1.25% isoflurane in oxygen. Temperature was monitored with a rectal probe and maintained constant via a heated water blanket, respiration was monitored using a pillow connected to a piezoelectric transducer. Electrocardiogram (ECG) signals were monitored with neonatal graphite (3M) electrodes, placed over the front left and rear right paws.
A 12 cm diameter birdcage was used to transmit the signal and a 4 channel cardiac array coil was used for signal reception. The imaging protocol consisted of scout scans followed by ECG-gated fast imaging with steady state […] (FISP) slices (repetition time/echo time TR/TE 6/2.4 ms 13-20 frames, 3.5 cm field of view (FOV), 256 matrix, 1 mm slice thickness, bandwidth 64.1 kHz, flip angle (FA) 20°, 2 sampling average [number of excitations, NEX]), in the long-axis and in the short-axis to cover the whole heart. In post processing, volumes during different phases of the ECG were delineated and integrated over whole heart using Simpson's rule. Global functional parameters were obtained including ejection fraction, the fraction of blood ejected into the circulation during one heartbeat.
For the Pressure/Volume (P/V) measurement, left ventricular catheterization via the right carotid artery was carried out using a 1.2 F pressure-catheter (Scisense Inc., London, Canada).
The results of the long-term treatment of the STZ-induced Type I diabetes administered with MitoGamide on body weight, blood glucose and heart rate were compared with placebo-treated STZ mice and controls (FIG. 16). The blood glucose was measured on whole blood using Johnson and Johnson's OneTouch® Ultra Blood Glucose Monitoring System. The heart rate was measured during use of the P/V loop catheter and recorded.
To assess the effect of MitoGamide on the well-known detrimental effects of long-term hyperglycaemia in Type I diabetes heart function was measured by MRI and by P/V loop measurement (FIG. 17). Mice that were 6-7 week old C57Bl6/J mice (>20 g) were administered STZ (50 mg/kg by intraperitoneal injection) on 5 consecutive days. The death of the beta-cells and the induction of the high blood glucose associated with Type I diabetes was confirmed by weekly blood glucose tests on mice tail vein blood sample. A blood glucose level >17 mmol/l was considered diabetic. […]

Setting [5] is: 10 mg/kg once per day via gavage, 12 weeks.
Setting [6] is: MRI, 10 mg/kg once per day via gavage.
Where [7] appears, read: P/V loop, 10 mg/kg once per day via gavage.

These results are taken from patent publication US9963474B2, “Mitochondria-targeted dicarbonyl sequestering compounds” (MEDICAL RESEARCH COUNCIL, priority 2013, dated 2018).

Take `N=C(N)NN` [AG, aminoguanidine]: the “formation of MQE under high glucose” value in the experiment with BAECs [1] (30 mM D-glucose/10 mM aminoguanidinium, 4 h) is “decreased”. In addition, the “amounts of MQE and QE detected after exogenous methylglyoxal or glyoxal” value in the experiment with BAECs [1] was “reduced”.

With `N#CC(C#N)=NNc1ccc(OC(F)(F)F)cc1` [FCCP, carbonylcyanide p-trifluoromethoxyphenylhydrazone], the “formation of MQE/QE under high glucose” value in the experiment with BAECs [1] (high glucose, with uncoupler) is on record as “blocked”. In the experiment on BAECs [1], the “amounts of MQE and QE detected after exogenous methylglyoxal or glyoxal” value is recorded as “reduced”.

Consider `CCCCCCOc1ccc(N)c(N)c1` [HP, 4-Hexyloxybenzene-1,2-diamine], for which, in the experiment on C2C12 cells, the “protection against methylglyoxal-induced cell death” value is reported as “not significantly protective” and the “protection against glyoxal-induced cell death” value was “not significantly protective”. In the experiment on BAECs [2], the “protection against glyoxal-induced cell death” value is recorded as “not significantly protective” and the “protection against methylglyoxal-induced cell death” value is “not significantly protective”. In addition, in experiment [3], the “protection against methylglyoxal-induced respiratory depression” value was “not significantly protective” and the “protection against glyoxal-induced respiratory depression” value is “not significantly protective”.

For the compound `Nc1ccc(C(=O)NCCC[P+](c2ccccc2)(c2ccccc2)c2ccccc2)cc1N` [MitoGamide, [3-(3,4′-Diaminobenzoylamino)-prop-1-yl]triphenylphosphonium m esylate], in experiment [4] (setting [5]), the “effect on STZ-induced decrease in body weight” value is on record as “neither of which were affected”, the “effect on STZ-induced increase in blood glucose” value is recorded as “neither of which were affected” and the heart rate entry was “neither STZ- or MitoGamide-treatment affected heart rate”. Moreover, in experiment [4] (MRI-corrected P/V loops, 10 mg/kg once per day via gavage), the “increase in diastolic stiffness in diabetic mice” value was “prevented”. In addition, in experiment [4] (setting [6]), the “end diastolic volume impaired by STZ” value is given as “not ameliorated” and the systolic ejection fraction entry is “neither STZ nor MitoGamide had any effect”. Moreover, in experiment [4] (setting [7]), the “increase in end diastolic pressure in diabetic mice” value is recorded as “prevented” and the “left ventricular diastolic time constant (Tau Weiss) impaired by STZ” value is given as “not ameliorated”. Moreover, the “oxidative damage in the heart (4-hydroxynonenal staining)” value in experiment [4] (heart histology, antibody against 4HNE) is listed as “decreased oxidative damage”.

For `CCCC[P+](c1ccccc1)(c1ccccc1)c1ccccc1` [ButylTPP], in the experiment on C2C12 cells, the “protection against methylglyoxal-induced cell death” value is “not significantly protective” and the “protection against glyoxal-induced cell death” value is reported as “not significantly protective”. Besides, in the experiment on BAECs [2], the “protection against glyoxal-induced cell death” value is “not significantly protective” and the “protection against methylglyoxal-induced cell death” value is recorded as “not significantly protective”. Also, in experiment [3], the “protection against methylglyoxal-induced respiratory depression” value is “not significantly protective” and the “protection against glyoxal-induced respiratory depression” value is “not significantly protective”.

`NC(CCC(=O)NC(CSCc1ccc(Br)cc1)C(=O)NCC(=O)OC1CCCC1)C(=O)OC1CCCC1` (centres unmarked) [bromobenzyl glutathione cyclopentyl diester]: the “amount of MQE and QE under high glucose” value in the experiment with BAECs [1] (high glucose, 4 h, glyoxalase I inhibitor) is “increased”.
